Measurements published in patent US5180729A, “Use of sigma receptor antagonists for treatment of cocaine abuse” (Du Pont Merck Pharmaceutical Company, priority 1991, dated 1993).

Tested on: cocaine-induced motor activity
Assay: Cocaine-induced behavior and baseline motor activity, same animal system (haloperidol)
Type: in vivo
Conditions: for Effect on baseline motor activity in the absence of cocaine (in words): same animal system as Ex. No. 504, cocaine-free animals
Protocol: Cocaine was administered to mice or rats and its effect in stimulating motor activity was quantified. The cocaine-stimulated motor activity was used to evaluate the effects of the sigma receptor antagonist in reducing this enhanced motor stimulation, i.e., counteracting the pharmacological effect of cocaine in the animal.

For `O=C(CCCN1CCC(O)(c2ccc(Cl)cc2)CC1)c1ccc(F)cc1` [haloperidol], the “Effect on cocaine-induced behavior (in words)” value (same animal system as Ex. No. 504) was “did not specifically inhibit cocaine-induced behavior”, the “Effect on baseline motor activity in the absence of cocaine (in words)” value was “significantly depressed baseline motor activity” and the “Effect on baseline motor activity in the absence of cocaine (in words)” value (listed as Haloperidol) was “adverse non-selective attenuation of normal motor activity”.
